# From patent EP2488529B1, “Spirocyclic derivatives as histone deacetylase inhibitors” (DAC S.r.l., priority 2009, dated 2011)
# What was measured:
# HDAC = test: Assay of enzyme inhibition of HDAC (BIOMOL kit, fluorescence); format: biochemical; conditions: nuclear fraction of Hela cells; substrate 200 µM; 15 min at RT
# Description: The in-vitro activity of HDAC inhibitors was assayed using a BIOMOL Kit, according to the instructions from the manufacturer (Biomolecular Research Laborator). 15 µl of 30 x diluted nuclear fraction of Hela cells, was diluted to 50 µl with the assay buffer containing the HDAC inhibitor and the substrate (lysine with acetylated amino group on the side chain) at a concentration of 200 µM. The samples were incubated for 15 min at RT and then exposed to a developer (10 min at RT). In this last step a fluorophore was produced, whose fluorescence was measured using an excitation wavelength of 355 nm and an emission at 460 nm. The IC50 was calculated using GraphPad Software.
# HCT-116 = test: Cell growth, CellTiter-Glo Luminescent Cell Viability Assay (antiproliferative assay); format: cell-based; conditions: Homo sapiens; HCT-116 cells, incubated for 72 h; read-out: HCT116 IC50
# Text: (§1) CellTiter-Glo® Luminescent Cell Viability Assay (Promega) is a homogeneous method of determining the number of viable cells in culture based on quantitation of the present ATP, which indicates the presence of metabolically active cells. The homogeneous assay procedure involves addition of a single reagent (CellTiter-Glo® Reagent) directly to the cells, which leads to cell lysis and generation of a luminescent signal proportional to the amount of the ATP and the number of cells present in culture. The assay relies on the properties of a proprietary thermostable luciferase (Ultra-Glo® recombinant luciferase), which generates a luminescent signal. K562, A549, and HCT-116 cells, in exponential growth, were incubated for 72 h with different concentrations of the inhibitors. After 72 h, a volume of CellTiter-Glo® Reagent equal to the volume of cell culture medium was added. The content was mixed for 2 min to induce cell lysis. The luminescence was recorded after further 10 min at RT in order to obtain a stable luminescent signal.
# (§2) The IC50 was calculated using GraphPad Software.
# K562 = test: as above; format: cell-based; conditions: Homo sapiens; K562 cells, incubated for 72 h
# Text: as §1, §2
# A549 = test: as above; format: cell-based; conditions: Homo sapiens; A549 cells, incubated for 72 h
# Text: as §1, §2
Structure (SMILES),IC50 (HDAC),IC50 (HCT-116),IC50 (K562),IC50 (A549)
"O=C(/C=C/c1ccc2c(c1)C(=O)CC1(CCNC1)O2)NO (racemic) [Example 1, (±)-(E)-3-[4-Oxo-spiro(chromane-2,3'-pyrrolidine)-6-yl]-N-hydroxy-acrylamide]",100 to 1000 nM,1000 to 3000 nM,≥ 3000 nM,1000 to 3000 nM
"O=C(/C=C/c1ccc2c(c1)C(=O)CC1(CCN(Cc3ccccc3)C1)O2)NO (racemic) [Example 2, (±)-(E)-3-[1'-Benzyl-4-oxo-spiro(chromane-2,3'-pyrrolidine)-6-yl]-N-hydroxy-acrylamide]",≤ 100 nM,≤ 1000 nM,≤ 1000 nM,≤ 1000 nM
"CC(=O)N1CCC2(CC(=O)c3cc(/C=C/C(=O)NO)ccc3O2)C1 (racemic) [Example 5, (±)-(E)-3-[1'-Acetyl-4-oxo-spiro(chromane-2,3'-pyrrolidine)-6-yl]-N-hydroxy-acrylamide]",100 to 1000 nM,≥ 3000 nM,≥ 3000 nM,≥ 3000 nM
"O=C(/C=C/c1ccc2c(c1)C(=O)CC1(CCN(C(=O)c3ccccc3)C1)O2)NO (racemic) [Example 6, (±)-(E)-3-[1'-Benzoyl-4-oxo-spiro(chromane-2,3'-pyrrolidine)-6-yl]-N-hydroxy-acrylamide]",100 to 1000 nM,≤ 1000 nM,≤ 1000 nM,1000 to 3000 nM
"CN1CCC2(CC(=O)c3cc(/C=C/C(=O)NO)ccc3O2)C1 (racemic) [Example 7, (±)-(E)-3-[1'-Methyl-4-oxo-spiro(chromane-2,3'-pyrrolidine)-6-yl]-N-hydroxy-acrylamide]",100 to 1000 nM,≤ 1000 nM,≤ 1000 nM,≤ 1000 nM
"CCOC(=O)N1CCC2(CC(=O)c3cc(/C=C/C(=O)NO)ccc3O2)C1 (racemic) [Example 8, (±)-(E)-3-[1'-Ethyloxycarbonyl-4-oxo-spiro(chromane-2,3'-pyrrolidine)-6-yl]-N-hydroxy-acrylamide]",100 to 1000 nM,≤ 1000 nM,≤ 1000 nM,≤ 1000 nM
"O=C(/C=C/c1ccc2c(c1)C(=O)CC1(CCN(CCc3ccccc3)C1)O2)NO (racemic) [Example 9, (±)-(E)-3-[1'-(2-Phenyl-ethyl)-4-oxo-spiro(chromane-2,3'-pyrrolidine)-6-yl]-N-hydroxy-acrylamide]",≤ 100 nM,≤ 1000 nM,≤ 1000 nM,≤ 1000 nM
"Cn1cc(CN2CCC3(CC(=O)c4cc(/C=C/C(=O)NO)ccc4O3)C2)c2ccccc21 (racemic) [Example 10, (±)-(E)-3-[1'-(1-Methyl-1H-indol-3-ylmethyl)-4-oxo-spiro(chromane-2,3'-pyrrolidine)-6-yl]-N-hydroxy-acrylamide]",≤ 100 nM,≤ 1000 nM,≤ 1000 nM,≤ 1000 nM
"O=C(/C=C/c1ccc2c(c1)C(=O)CC1(CCN(Cc3ccc(F)cc3)C1)O2)NO (racemic) [Example 11, (±)-(E)-3-[1'-(4-Fluoro-benzyl)-4-oxo-spiro(chromane-2,3'-pyrrolidine)-6-yl]-N-hydroxy-acrylamide]",100 to 1000 nM,≤ 1000 nM,≤ 1000 nM,≤ 1000 nM
"O=C(/C=C/c1ccc2c(c1)C(=O)CC1(CCCNC1)O2)NO (racemic) [Example 12, (±)-(E)-3-[4-Oxo-spiro(chromane-2,3'-piperidine)-6-yl]-N-hydroxy-acrylamide]",100 to 1000 nM,≤ 1000 nM,≤ 1000 nM,≤ 1000 nM
"Cn1cc(CN2CCCC3(CC2)CC(=O)c2cc(/C=C/C(=O)NO)ccc2O3)c2ccccc21 (racemic) [Example 47, (±)-(E)-3-[1'-(1-Methyl-1H-indol-3-ylmethyl)-4-oxo-spiro(chromane-2,4'-azepane)-6-yl]-N-hydroxy-acrylamide]",100 to 1000 nM,,,
"CCN1CCCC2(CC(=O)c3cc(/C=C/C(=O)NO)ccc3O2)C1 (racemic) [Example 48, (±)-(E)-3-[1'-Ethyl-4-oxo-spiro(chromane-2,3'-piperidine)-6-yl]-N-hydroxy-acrylamide]",100 to 1000 nM,,,
